Results: patent publication US9133235B2, “Macrocyclic antagonists of the motilin receptor for treatment of gastrointestinal dysmotility disorders” (Ocera Therapeutics, Inc., priority 2006, dated 2015)

Legend:
human motilin receptor [1] = target: T1, human motilin receptor (Homo sapiens, UniProt O43193); assay: Aequorin functional assay (motilin receptor); type: cell-based; set-up: host or cells: CHO-K1 cells co-expressing Gα16 and mitochondrially targeted Aequorin; settings: for IC50: functional activity, antagonist testing vs motilin 0.5 nM (EC80)
T1 sequence (O43193 whole entry): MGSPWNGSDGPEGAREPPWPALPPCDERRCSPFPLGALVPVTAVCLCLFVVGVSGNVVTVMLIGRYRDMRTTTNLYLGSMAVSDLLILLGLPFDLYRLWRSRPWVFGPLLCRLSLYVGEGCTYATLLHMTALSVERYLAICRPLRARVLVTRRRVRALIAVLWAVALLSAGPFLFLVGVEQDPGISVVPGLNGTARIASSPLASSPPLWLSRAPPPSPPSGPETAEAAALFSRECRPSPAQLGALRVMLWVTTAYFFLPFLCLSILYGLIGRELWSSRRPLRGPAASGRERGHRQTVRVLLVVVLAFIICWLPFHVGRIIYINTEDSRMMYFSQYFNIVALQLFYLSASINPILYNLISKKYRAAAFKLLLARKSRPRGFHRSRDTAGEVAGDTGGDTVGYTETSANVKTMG
Method: B. Aequorin Functional Assay (Motilin Receptor)
The evaluation of compounds of the invention for functional activity can be conducted according to literature methods or as described below. (Carreras, C. W.; Siani, M. A.; Santi, D. V.; Dillon, S. B. Anal. Biochem. 2002, 300, 146-151.)
• Membranes were prepared using AequoScreen™ (EUROSCREEN, Belgium) cell lines expressing the human motilin receptor (cell line ES-380-A; receptor accession #AF034632). This cell line is constructed by transfection of the human motilin receptor into CHO-K1 cells co-expressing Gα16 and the mitochondrially targeted Aequorin (Ref. #ES-WT-A5). • Motilin (Bachem, #H-4385) • Assay buffer: DMEM-F12 (Dulbeccoe's Modified Eagles Medium) with 15 mM HEPES and 0.1% BSA (pH 7.0) • Coelenterazine (Molecular Probes™, Leiden, The Netherlands) Final Test Concentrations (N=5) for Compounds: • 10, 3.16, 1.0, 0.316, 0.10 μM. Compound Handling:
Compounds were provided as dry films at a quantity of approximately 1.2 μmol in pre-formatted 96-well plates. Compounds were dissolved in 100% DMSO at a concentration of 10 mM and stored at −20° C. until further use. Daughter plates were prepared at a concentration of 500 μM in 30% DMSO with 0.1% BSA and stored at −20° C. until testing. On the test day, compounds were allowed to thaw at room temperature and than diluted in assay buffer according to the desired test concentrations. Under these conditions, the maximum final DMSO concentration in the assay was 0.6%.
Cells are collected from culture plates with Ca^2+ and Mg^2+-free phosphate buffered saline (PBS) supplemented with 5 mM EDTA, pelleted for 2 minutes at 1000×g, resuspended in assay buffer (see above) at a density of 5×10^6 cells/mL and incubated overnight in the presence of 5 μM coelenterazine. After loading, cells were diluted with assay buffer to a concentration of 5×10^5 cells/mL.
For agonist testing, 50 μL of the cell suspension was mixed with 50 μL of the appropriate concentration of test compound or motilin (reference agonist) in 96-well plates (duplicate samples). The emission of light resulting from receptor activation was recorded using the Functional Drug Screening System 6000 ‘FDSS 6000’ (Hamamatsu Photonics K. K., Japan).
For antagonist testing, an approximate EC80 concentration of motilin (i.e. 0.5 nM; 100 μL) was injected onto the cell suspension containing the test compounds (duplicate samples) 15-30 minutes after the end of agonist testing and the consequent emission of light resulting from receptor activation was measured as described in the paragraph above.
Results are expressed as Relative Light Units (RLU). Concentration response curves were analyzed using GraphPad™ Prism® (GraphPad Software, San Diego, Calif.) by non-linear regression analysis (sigmoidal dose-response) based on the equation E=Emax/(1+EC50/C)n where E is the measured RLU value at a given agonist concentration (C), Emax is the maximal response, EC50 is the concentration producing 50% stimulation and n is the slope index. For agonist testing, results for each concentration of test compound were expressed as percent activation relative to the signal induced by motilin at a concentration equal to the EC80 (i.e. 0.5 nM). For antagonist testing, results for each concentration of test compound were expressed as percent inhibition relative to the signal induced by motilin at a concentration equal to the EC80 (i.e. 0.5 nM).

human motilin receptor [2] = target: T1, human motilin receptor; assay: Competitive radioligand binding assay (motilin receptor); set-up: purchased PerkinElmer (SignalScreen) 6110544; host or cells: CHO cells, stably transfected; membranes; settings: [125I]-motilin competition, membranes of CHO cells with human motilin receptor; read-out: Ki
Method: A. Competitive Radioligand Binding Assay (Motilin Receptor)
The competitive binding assay at the human motilin receptor was carried out analogously to assays described in the literature.
• Membranes were prepared from CHO cells stably transfected with the human motilin receptor and utilized at a quantity of 1.5 μg/assay point. [PerkinElmer™ SignalScreen Product #6110544] • [^125I]-Motilin (PerkinElmer, #NEX-378); final concentration: 0.04-0.06 nM • Motilin (Bachem™, #H-4385); final concentration: 1 μM • Multiscreen Harvest plates-GF/B (Millipore™, #MAHFB1H60) • Deep-well polypropylene titer plate (Beckman Coulter™, #267006) • TopSeal-A (PerkinElmer, #6005185) • Bottom seal (Millipore, #MATAH0P00) • MicroScint-0 (PerkinElmer, #6013611) • Binding Buffer: 50 mM Tris-HCl (pH 7.4), 10 mM MgCl2, 1 mM EDTA, 0.1% BSA Assay Volumes: • 150 μL of membranes diluted in binding buffer • 10 μL of compound diluted in binding buffer • 10 μL of radioligand ([^125I]-Motilin) diluted in binding buffer Final Test Concentrations (N=11) for Compounds: • 10, 5.0, 2.0, 1.0, 0.50, 0.20, 0.10, 0.050, 0.020, 0.010, 0.0050 μM. Compound Handling:
Compounds were provided frozen on dry ice at a stock concentration of 10 mM diluted in 100% DMSO and stored at −20° C. until the day of testing. On the test day, compounds were allowed to thaw at room temperature and than diluted in assay buffer according to the desired test concentrations. Under these conditions, the maximum final DMSO concentration in the assay was 0.5%.
In deep-well plates, diluted cell membranes (1.5 μg/mL) are combined with 10 μL of either binding buffer (total binding, N=5), 1 μM motilin (non-specific binding, N=3) or the appropriate concentration of test compound. The reaction is initiated by addition of 10 μL of [^125I]-motilin (final conc. 0.04-0.06 nM) to each well. Plates are sealed with TopSeal-A, vortexed gently and incubated at room temperature for 2 hours. The reaction is arrested by filtering samples through pre-soaked (0.3% polyethyleneimine, 2 h) Multiscreen Harvest plates using a Tomtec Harvester, washed 9 times with 500 μL of cold 50 mM Tris-HCl (pH 7.4), and than plates are air-dried in a fumehood for 30 minutes. A bottom seal is applied to the plates prior to the addition of 25 μL of MicroScint-0 to each well. Plates are than sealed with TopSeal-A and counted for 30 sec per well on a TopCount Microplate Scintillation and Luminescence Counter (PerkinElmer) where results are expressed as counts per minute (cpm).
Data are analyzed by GraphPad™ Prism® (GraphPad Software, San Diego, Calif.) using a variable slope non-linear regression analysis.
[formula] where total and non-specific binding represent the cpm obtained in the absence or presence of 1 μM motilin, respectively.

IC50 (human motilin receptor [1]) | Ki (human motilin receptor [2]) | SMILES | approximate EC80 concentration (human motilin receptor [1]; reference agonist)
≤ 100 nM |  | CC(C)[C@H]1NC(=O)[C@@H](Cc2cccc(C(F)(F)F)c2)NCCOc2ccccc2CCCNC(=O)[C@H](CNC(=N)N)NC1=O [Compound 503] | 
≤ 100 nM | ≤ 100 nM | CC(C)[C@H]1NC(=O)[C@@H](Cc2cccc(C(F)(F)F)c2)NCCOc2ccccc2C[C@@H](C)CNC(=O)[C@H](CNC(=N)N)NC1=O [Compound 504] | 
≤ 10 nM | ≤ 10 nM | CC(C)[C@H]1NC(=O)[C@@H](Cc2cccc(C(F)(F)F)c2)NCCOc2ccccc2C[C@H](C)CNC(=O)[C@H](CNC(=N)N)NC1=O [Compound 505] | 
≤ 100 nM | ≤ 100 nM | CCC[C@@H]1NC(=O)[C@@H](C(C)C)NC(=O)[C@@H](Cc2cccc(F)c2)N[C@H](C)COc2ccccc2CCCNC1=O [Compound 513] | 
≤ 100 nM |  | CC(C)[C@H]1NC(=O)[C@@H](Cc2cccc(Cl)c2)N[C@@H](C)COc2ccccc2CCCNC(=O)[C@H](CNC(=N)N)NC1=O [Compound 516] | 
≤ 10 nM | ≤ 10 nM | CC(C)[C@H]1NC(=O)[C@@H](Cc2cccc(F)c2)N[C@@H](C)COc2ccccc2CCCNC(=O)[C@H](CN(C)C)NC1=O [Compound 529] | 
≤ 100 nM | ≤ 10 nM | CC(C)[C@H]1NC(=O)[C@@H](Cc2cccc(C(F)(F)F)c2)NCCOc2ccccc2CCCNC(=O)[C@H](CN2CCCC2)NC1=O [Compound 532] | 
≤ 10 nM | ≤ 100 nM | CC(C)[C@H]1NC(=O)[C@@H](Cc2cccc(F)c2)N[C@@H](C)COc2ccccc2CCCNC(=O)[C@H](CN2CCCC2)NC1=O [Compound 533] | 
≤ 10 nM | ≤ 100 nM | CC(C)[C@H]1NC(=O)[C@@H](Cc2cccc(F)c2)N[C@@H](C)COc2ccccc2CCCNC(=O)[C@H](CN2CCOCC2)NC1=O [Compound 534] | 
≤ 10 nM | ≤ 100 nM | CC(C)[C@H]1NC(=O)[C@@H](Cc2cccc(F)c2)N[C@@H](C)COc2ccccc2CCCNC(=O)[C@H](CNc2ncccn2)NC1=O [Compound 535] | 
≤ 100 nM | ≤ 100 nM | Cc1cnnn1C[C@@H]1NC(=O)[C@@H](C(C)C)NC(=O)[C@@H](Cc2cccc(F)c2)N[C@@H](C)COc2ccccc2CCCNC1=O [Compound 536] | 
≤ 1 nM | ≤ 10 nM | CC(C)[C@H]1NC(=O)[C@@H](Cc2cccc(C(F)(F)F)c2)NCCOc2ccccc2CCCNC(=O)[C@H](CN=[N+]=[N-])NC1=O [Compound 537] | 
≤ 1 nM | ≤ 10 nM | CC(C)[C@H]1NC(=O)[C@@H](Cc2cccc(F)c2)N[C@@H](C)COc2ccccc2CCCNC(=O)[C@H](CN=[N+]=[N-])NC1=O [Compound 538] | 
≤ 1 nM | ≤ 10 nM | CC(C)[C@H]1NC(=O)[C@@H](Cc2cccc(C(F)(F)F)c2)NCCOc2ccccc2CCCNC(=O)[C@H](Cn2cccc2)NC1=O [Compound 539] | 
≤ 1 nM | ≤ 10 nM | CC(C)[C@H]1NC(=O)[C@@H](Cc2cccc(F)c2)N[C@@H](C)COc2ccccc2CCCNC(=O)[C@H](Cn2cccc2)NC1=O [Compound 540] | 
≤ 10 nM | ≤ 100 nM | CC(C)[C@H]1NC(=O)[C@@H](Cc2cccc(C(F)(F)F)c2)NCCOc2ccccc2CCCNC(=O)[C@H](CN)NC1=O [Compound 542] | 
≤ 100 nM | ≤ 100 nM | CC(C)[C@H]1NC(=O)[C@@H](Cc2cccc(F)c2)N[C@@H](C)COc2ccccc2CCCNC(=O)[C@H](CN)NC1=O [Compound 543] | 
≤ 1 nM | ≤ 10 nM | CC(C)[C@H]1NC(=O)[C@@H](Cc2cccc(F)c2)N[C@@H](C)COc2ccccc2C[C@H](C)CNC(=O)[C@H](CN)NC1=O [Compound 544] | 
≤ 1 nM | ≤ 10 nM | CC(C)[C@H]1NC(=O)[C@@H](Cc2cccc(F)c2)N[C@@H](C)COc2ccccc2C[C@H](C)CNC(=O)[C@H](CN=[N+]=[N-])NC1=O [Compound 545] | 
≤ 1 nM | ≤ 10 nM | CNC[C@@H]1NC(=O)[C@@H](C(C)C)NC(=O)[C@@H](Cc2cccc(F)c2)N[C@@H](C)COc2ccccc2C[C@H](C)CNC1=O [Compound 546] | 
≤ 10 nM | ≤ 10 nM | CNC[C@@H]1NC(=O)[C@@H](C(C)C)NC(=O)[C@@H](Cc2cccc(C(F)(F)F)c2)NCCOc2ccccc2CCCNC1=O [Compound 547] | 
≤ 10 nM | ≤ 10 nM | CNC[C@@H]1NC(=O)[C@@H](C(C)C)NC(=O)[C@@H](Cc2cccc(F)c2)N[C@@H](C)COc2ccccc2CCCNC1=O [Compound 548] | 
≤ 1 nM | ≤ 10 nM | CC(C)[C@H]1NC(=O)[C@@H](Cc2cccc(F)c2)N[C@@H](C)COc2ccccc2C[C@H](C)CNC(=O)[C@H](CNc2ncccn2)NC1=O [Compound 550] | 
≤ 1 nM | ≤ 10 nM | C[C@H]1COc2ccccc2CCCNC(=O)[C@H](CC2CC2)NC(=O)[C@@H](C2CC2)NC(=O)[C@@H](Cc2cccc(F)c2)N1 [Compound 555] | 
 |  | CC[C@H](C)[C@H](NC(=O)[C@@H]1CCCN1C(=O)[C@@H](NC(=O)[C@@H](N)Cc1ccccc1)C(C)C)C(=O)N[C@@H](Cc1ccccc1)C(=O)N[C@H](C(=O)N[C@@H](Cc1ccc(O)cc1)C(=O)NCC(=O)N[C@@H](CCC(=O)O)C(=O)N[C@@H](CC(C)C)C(=O)N[C@@H](CCC(N)=O)C(=O)N[C@@H](CCCNC(=N)N)C(=O)N[C@@H](CCSC)C(=O)N[C@@H](CCC(N)=O)C(=O)N[C@@H](CCC(=O)O)C(=O)N[C@@H](CCCCN)C(=O)N[C@@H](CCC(=O)O)C(=O)N[C@@H](CCCNC(=N)N)C(=O)N[C@@H](CC(N)=O)C(=O)N[C@@H](CCCCN)C(=O)NCC(=O)N[C@@H](CCC(N)=O)C(=O)O)[C@@H](C)O [motilin] | ~0.5 nM
